In patent US20090069300A1, “ISOQUINOLINYL AND ISOINDOLINYL DERIVATIVES AS HISTAMINE-3 ANTAGONISTS” (Wyeth, priority 2007, published 2009):
Where a name gives a salt, the structure may show the parent alone.

Compound	melting point
CNC(=O)c1ccc(-c2ccc3c(c2)CCN(CCN2CCC[C@H]2C)C3=O)cc1 (as salt: hydrochloride) [Example 78, N-methyl-4-(2-{2-[(2R)-2-methylpyrrolidin-1-yl]ethyl}-1-oxo-1,2,3,4-tetrahydroisoquinolin-6-yl)benzamide]	258 to 260 °C
C[C@@H]1CCCN1CCN1CCc2cc(Oc3ccc(C#N)cn3)ccc2C1=O (as salt: hydrochloride) [Example 48, 6-[(2-{2-[(2R)-2-methylpyrrolidin-1-yl]ethyl}-1-oxo-1,2,3,4-tetrahydroisoquinolin-6-yl)oxy]nicotinonitrile]	184 to 185 °C
O=C(c1ccc(-c2ccc3c(c2)CCN(CCN2CCCC2)C3=O)cc1)N1CCCC1 (as salt: hydrochloride) [Example 54, 6-[4-(pyrrolidin-1-ylcarbonyl)phenyl]-2-(2-pyrrolidin-1-ylethyl)-3,4-dihydroisoquinolin-1(2H)-one hydrochloride]	245 to 248 °C
O=C1c2ccc(N3CCCCC3)cc2CCN1CCN1CCCCC1 (as salt: hydrochloride) [Example 163, 6-(piperidin-1-yl)-2-(2-(piperidin-1-yl)ethyl)-3,4-dihydroisoquinolin-1(2H)-one]	245 to 246 °C
O=C(c1ccc2c(c1)CCN(CCN1CCCC1)C2=O)N1CCCC1 (as salt: hydrochloride) [Example 38, 6-(pyrrolidin-1-ylcarbonyl)-2-(2-pyrrolidin-1-ylethyl)-3,4-dihydroisoquinolin-1(2H)-one hydrochloride]	194 to 196 °C
N#Cc1ccc(-c2ccc3c(c2)CCN(CCN2CCCC2)C3=O)cc1 (as salt: hydrochloride) [Example 19, 4-[1-oxo-2-(2-pyrrolidin-1-ylethyl)-1,2,3,4-tetrahydroisoquinolin-6-yl]benzonitrile]	249 to 251 °C
C[C@@H]1CCCN1CCN1CCc2cc(-c3ccc4c(c3)CCNC4=O)ccc2C1=O (as salt: hydrochloride) [Example 157, (R)-2-(2-(2-methylpyrrolidin-1-yl)ethyl)-3,3′,4,4′-tetrahydro-6,6′-biisoquinoline-1,1′(2H,2′H-dione hydrochloride]	272 to 273.5 °C

Further lines, results first:

melting point	Compound
254 to 255 °C	C[C@@H]1CCCN1CCN1CCc2cc(Oc3ccc(C#N)cc3)ccc2C1=O (as salt: hydrochloride) [Example 49, 4-[(2-{2-[(2R)-2-methylpyrrolidin-1-yl]ethyl}-1-oxo-1,2,3,4-tetrahydroisoquinolin-6-yl)oxy]benzonitrile]
218 to 220 °C	O=C1c2ccc(-c3ccccc3)cc2CCN1CCN1CCCC1 (as salt: hydrochloride) [Example 16, 6-phenyl-2-(2-pyrrolidin-1-ylethyl)-3,4-dihydroisoquinolin-1(2H)-one]
240 to 241 °C	O=C(c1ccc(-c2ccc3c(c2)CCN(CCN2CCCC2)C3=O)cc1)N1CCCCC1 (as salt: hydrochloride) [Example 79, 6-[4-(piperidin-1-ylcarbonyl)phenyl]-2-(2-pyrrolidin-1-ylethyl)-3,4-dihydroisoquinolin-1(2H)-one]
211 to 213 °C	O=C(NCc1ccco1)c1ccc(-c2ccc3c(c2)CCN(CCN2CCCC2)C3=O)cc1 (as salt: hydrochloride) [Example 125, N-(2-furylmethyl)-4-[1-oxo-2-(2-pyrrolidin-1-ylethyl)-1,2,3,4-tetrahydroisoquinolin-6-yl]benzamide]
241 to 242 °C	O=C(c1ccc(-c2ccc3c(c2)CCN(CCN2CCCC2)C3)cc1)N1CCCC1 (as salt: hydrochloride) [Example 184, 6-[4-(pyrrolidin-1-ylcarbonyl)phenyl]-2-(2-pyrrolidin-1-ylethyl)-1,2,3,4-tetrahydroisoquinoline]
224 to 225 °C	COc1ccc(-c2ccc3c(c2)CCN(CCN2CCCC2)C3=O)cc1 (as salt: hydrochloride) [Example 23, 6-(4-methoxyphenyl)-2-(2-pyrrolidin-1-ylethyl)-3,4-dihydroisoquinolin-1(2H)-one]
